According to ChEMBL document CHEMBL5316291 (J Med Chem, 2023):
The source made the active and inactive calls. The calls are words filed in the database; no cut-off is given here.

Tests used:
[1] = target: Poly [ADP-ribose] polymerase 2 (Homo sapiens, UniProt Q9UGN5); assay: Inhibition of human recombinant N-terminal GST-tagged PARP2 (2 to 583 residues) expressed in baculovirus infected Sf9 cells expression system incubated for 1 hr by ELISA assay
[2] = target: T1, Protein mono-ADP-ribosyltransferase PARP10 (Homo sapiens, UniProt Q53GL7); assay: Inhibition of human recombinant N-terminal FLAG-tagged / C-terminal Strep-tagged PARP10 (805 to 1025 end residues) expressed in baculovirus infected Sf9 cells expression system incubated for 1 hr by ELISA assay
T1 sequence (Q53GL7 whole entry): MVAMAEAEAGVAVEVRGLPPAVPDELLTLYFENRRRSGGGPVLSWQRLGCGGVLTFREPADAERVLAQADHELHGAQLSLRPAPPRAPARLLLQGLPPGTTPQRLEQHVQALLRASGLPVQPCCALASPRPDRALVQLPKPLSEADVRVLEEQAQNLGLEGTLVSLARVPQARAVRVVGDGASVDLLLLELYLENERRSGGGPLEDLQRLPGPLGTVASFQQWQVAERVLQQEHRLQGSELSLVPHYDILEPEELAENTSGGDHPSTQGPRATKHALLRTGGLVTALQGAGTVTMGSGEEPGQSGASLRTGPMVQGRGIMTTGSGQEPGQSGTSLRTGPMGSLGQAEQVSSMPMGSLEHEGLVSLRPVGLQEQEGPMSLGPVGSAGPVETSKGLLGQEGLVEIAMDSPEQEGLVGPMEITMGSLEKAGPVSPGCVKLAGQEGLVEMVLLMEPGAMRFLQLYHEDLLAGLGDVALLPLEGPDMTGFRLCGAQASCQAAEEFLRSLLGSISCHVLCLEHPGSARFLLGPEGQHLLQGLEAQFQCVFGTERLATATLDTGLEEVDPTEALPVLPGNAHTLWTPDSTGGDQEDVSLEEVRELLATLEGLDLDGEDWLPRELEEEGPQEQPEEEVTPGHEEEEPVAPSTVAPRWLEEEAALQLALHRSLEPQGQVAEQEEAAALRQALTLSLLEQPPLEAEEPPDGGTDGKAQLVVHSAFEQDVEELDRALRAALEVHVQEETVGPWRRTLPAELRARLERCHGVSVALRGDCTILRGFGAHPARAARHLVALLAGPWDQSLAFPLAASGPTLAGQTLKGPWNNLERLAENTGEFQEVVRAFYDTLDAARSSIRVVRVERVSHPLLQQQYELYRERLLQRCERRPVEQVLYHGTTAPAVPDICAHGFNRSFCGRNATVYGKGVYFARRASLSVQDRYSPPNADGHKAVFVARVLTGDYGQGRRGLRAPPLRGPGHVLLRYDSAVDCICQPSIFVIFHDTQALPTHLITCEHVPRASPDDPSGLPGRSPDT

[3] = target: T2, Protein mono-ADP-ribosyltransferase PARP12 (Homo sapiens, UniProt Q9H0J9); assay: Inhibition of human recombinant N-terminal GST-tagged PARP12 (500 to 701 end residues) expressed in baculovirus infected Sf9 cells expression system incubated for 1 hr by ELISA assay
T2 sequence (Q9H0J9 whole entry): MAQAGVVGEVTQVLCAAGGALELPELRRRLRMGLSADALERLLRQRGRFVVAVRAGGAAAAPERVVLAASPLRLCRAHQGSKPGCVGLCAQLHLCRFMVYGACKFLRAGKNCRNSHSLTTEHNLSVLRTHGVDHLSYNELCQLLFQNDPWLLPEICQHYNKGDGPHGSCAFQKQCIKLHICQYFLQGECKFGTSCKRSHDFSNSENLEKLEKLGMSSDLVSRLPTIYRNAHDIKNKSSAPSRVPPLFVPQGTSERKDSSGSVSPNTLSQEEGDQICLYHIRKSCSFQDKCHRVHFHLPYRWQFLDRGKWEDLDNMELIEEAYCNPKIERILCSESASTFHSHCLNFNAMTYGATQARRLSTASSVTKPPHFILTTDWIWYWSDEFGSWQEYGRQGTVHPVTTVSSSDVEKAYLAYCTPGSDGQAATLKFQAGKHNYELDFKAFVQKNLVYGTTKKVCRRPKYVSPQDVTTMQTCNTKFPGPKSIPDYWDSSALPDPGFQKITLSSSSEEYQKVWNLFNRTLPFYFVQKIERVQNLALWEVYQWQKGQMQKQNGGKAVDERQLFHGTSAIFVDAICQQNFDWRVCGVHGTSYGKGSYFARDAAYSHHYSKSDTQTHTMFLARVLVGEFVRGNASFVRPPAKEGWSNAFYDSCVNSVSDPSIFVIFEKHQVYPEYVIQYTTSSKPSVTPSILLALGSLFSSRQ

[4] = AUC(0 to infinity) in ICR mouse at 10 mg/kg, po measured upto 24 hrs by LC-MS/MS analysis; format: ADME, organism-based; set-up: dose 10 mg/kg, time < 24 hrs, route po; conditions: in vivo
[5] = Cytotoxicity against mouse AML12 cells assessed as inhibition of cell growth measured after 6 days by MTT assay; format: toxicity, cell-based
[6] = system: CT26; assay: Antitumor activity against mouse CT26 cells xenografted in BALB/c mouse assessed as tumor growth inhibition at 100 mg/kg, po bid measured for 14 days; format: functional; conditions: CT26, 336 h, time 14 day, read-out: TGI
[7] = system: CT26; assay: Antitumor activity against mouse CT26 cells xenografted in BALB/c mouse assessed as tumor growth inhibition at 25 mg/kg, po bid measured for 14 days; format: functional; conditions: CT26, 336 h, time 14 day, read-out: TGI
[8] = system: CT26; assay: Antitumor activity against mouse CT26 cells implanted in BALB/c mouse assessed as nuclear chromatin margination at 25 to 100 mg/kg, po bid measured for 14 days by hematoxylin and eosin staining based fluorescence microscopic analysis; format: functional, organism-based; conditions: dose 25-100 mg/kg, time 14.0 day
[9] = system: CT26; assay: Antitumor activity against mouse CT26 cells implanted in po dosed BALB/c mouse assessed as increase in CXCL10 levels measured after 14 days by RT-qPCR analysis; format: functional, organism-based; conditions: dose 25-100 mg/kg, time 14.0 day
[10] = system: CT26; assay: Antitumor activity against mouse CT26 cells implanted in BALB/c mouse assessed as increase in infiltration of CD4 positive CD8 positive T lymphocytes in tumors at 50 mg/kg, po measured after 14 days by flow cytometry (reference value: 6.67%); format: functional; conditions: time 14 day

Chain of Poly [ADP-ribose] polymerase 2 (Q9UGN5 whole entry, the tested form may be a part): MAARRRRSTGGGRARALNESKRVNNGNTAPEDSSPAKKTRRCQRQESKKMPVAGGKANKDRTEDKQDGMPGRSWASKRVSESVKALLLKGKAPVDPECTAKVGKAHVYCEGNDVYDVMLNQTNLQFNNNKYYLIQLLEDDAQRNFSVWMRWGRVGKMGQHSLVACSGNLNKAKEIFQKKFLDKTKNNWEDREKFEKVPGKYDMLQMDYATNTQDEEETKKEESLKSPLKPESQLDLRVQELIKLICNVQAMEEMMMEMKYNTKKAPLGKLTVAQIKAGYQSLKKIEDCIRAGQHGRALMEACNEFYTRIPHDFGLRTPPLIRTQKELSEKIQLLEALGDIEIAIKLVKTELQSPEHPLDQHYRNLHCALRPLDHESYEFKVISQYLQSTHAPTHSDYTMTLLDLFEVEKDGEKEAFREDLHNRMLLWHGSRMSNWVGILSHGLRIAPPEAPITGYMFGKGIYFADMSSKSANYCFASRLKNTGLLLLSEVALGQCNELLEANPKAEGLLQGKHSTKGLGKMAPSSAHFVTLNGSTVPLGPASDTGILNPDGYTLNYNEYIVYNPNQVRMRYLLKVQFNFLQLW

IC50 [1]: 546 nM
IC50 [2]: 325 nM
IC50 [3]: 453 nM
AUC [4]: 5663.5 ng·h/mL
SMILES: C[C@@H](CN1CC(C(=O)N2CCN(c3ncc(C(F)(F)F)cn3)CC2)C1)Nc1cn[nH]c(=O)c1C(F)(F)F
IC50 at 6 days [5]: > 50000 nM
inhibition in vivo at 100 mg/kg [6]: 67%
inhibition in vivo at 25 mg/kg [7]: 39%
Activity [8]: Active
Activity [9]: Dose-Dependent Effect
Activity [10]: 26.6%
